Literature values in patent publication US20210378997A1, “INHIBITOR OF RENAL FIBROSIS IN DIABETIC NEPHROPATHY” (KYOTO PREFECTURAL PUBLIC UNIVERSITY CORPORATION, priority 2018, published 2021).

Conditions: patients with diabetic nephropathy, 1-year medication

## Cc1ccc(=O)n(-c2ccccc2)c1 [pirfenidone]
  renal function (eGFR): significantly improved
